This note sets out measurements from ChEMBL document CHEMBL1151359, “Effects of Tetracyclic and Pentacyclic Triterpenoids on Growth of Phytophthora cactorum” (1981).

The test system of assay [1] is Phytophthora cactorum. The assay can be described thus: Antifungal activity against Phytophthora cactorum at 10 mg/L in liquid culture medium. In kind it is functional, organism-based.
Assay [2] has as its system Phytophthora cactorum. Nature of the assay: Effect on Phytophthora cactorum growth assessed as colony diameter at 10 mg/L after 6 days in solid culture medium. In kind it is functional.
In assay [3] the test system is Phytophthora cactorum. The assay can be described thus: Growth promotion activity in Phytophthora cactorum at 10 mg/L in liquid culture medium. The assay is classed as functional, organism-based.
For assay [4], the system named is Phytophthora cactorum. Nature of the assay: Growth promotion activity of Phytophthora cactorum assessed as mycelial dry weight at 10 mg/L after 18 days in liquid culture medium. The assay is classed as functional.
Assay [5] has as its system Phytophthora cactorum. Nature of the assay: Growth promotion activity of Phytophthora cactorum assessed as mycelial dry weight at 10 mg/L after 12 days in liquid culture medium. In kind it is functional.

Activity calls are given as the source filed them. The calls are words filed in the database; no cut-off is given here.

On to `C=C(C)[C@H]1CC[C@]2(C)[C@H]3CC[C@@H]4[C@@]5(C)CCCC(C)(C)[C@@H]5CC[C@@]4(C)[C@]3(C)CC[C@@H]12`, for which the outcome in the assay on Phytophthora cactorum [1] was Active. Besides, the Activity in the assay on Phytophthora cactorum [2] was determined as 30 mm. As for `C=C(C)[C@@H]1CC[C@]2(C)CC[C@]3(C)[C@H](CC[C@@H]4[C@@]5(C)CCC(=O)C(C)(C)[C@@H]5CC[C@]43C)[C@@H]12`, in the assay on Phytophthora cactorum [1], the result was Active. The same measure, in the same setting: under `CC(=O)OC(C)(C)/C=C/C(=O)[C@](C)(O)[C@H]1[C@H](O)C[C@@]2(C)[C@@H]3CC=C4[C@@H](C=C(O)C(=O)C4(C)C)[C@]3(C)C(=O)C[C@]12C` stands “Active”; under `CC(=O)OC(C)(C)/C=C/C(=O)[C@](C)(O)[C@H]1[C@H](O)C[C@@]2(C)[C@@H]3CC=C4[C@@H](C[C@H](O)C(=O)C4(C)C)[C@]3(CO)C(=O)C[C@]12C`, “Active”; under `CC(=O)OC(C)(C)/C=C/C(=O)[C@](C)(O)[C@H]1[C@H](O)C[C@@]2(C)[C@@H]3CC=C4[C@H](C[C@H](O)C(=O)C4(C)C)[C@]3(C)C(=O)C[C@]12C`, “Active”. As for `CC(C)(O)/C=C/C(=O)[C@](C)(O)[C@H]1[C@H](O)C[C@@]2(C)[C@@H]3CC=C4[C@@H](C[C@H](O)C(=O)C4(C)C)[C@]3(C)C(=O)C[C@]12C`, the outcome in the assay on Phytophthora cactorum [1] was Active. As to `CC(C)CCC[C@@H](C)[C@H]1CC[C@H]2[C@@H]3CC=C4C[C@@H](O)CC[C@]4(C)[C@H]3CC[C@]12C`, the outcome in the assay on Phytophthora cactorum [3] was Active.

Consider `C[C@H]1C(=O)CC[C@@H]2[C@]1(C)CC[C@H]1[C@@]2(C)CC[C@@]2(C)[C@@H]3CC(C)(C)CC[C@]3(C)CC[C@]12C`, for which the result in the assay with Phytophthora cactorum [1] was Active. For the compound `C[C@H]1[C@H](C)CC[C@]2(C)CC[C@]3(C)C(=CC[C@@H]4[C@@]5(C)CC[C@H](O)C(C)(C)[C@@H]5CC[C@]43C)[C@H]12`, the result in the assay with Phytophthora cactorum [3] was Active.

With `CC[C@H](CC[C@@H](C)[C@H]1CC[C@H]2[C@@H]3CC=C4C[C@@H](O)CC[C@]4(C)[C@H]3CC[C@]12C)C(C)C` [BETA-SITOSTEROL], the figures for the Activity in the assay on Phytophthora cactorum [4], with Phytophthora cactorum [5] and in the assay on Phytophthora cactorum [2] were 200 mg, 125 mg and 35 mm, respectively. With `C=C(C)[C@@H]1CC[C@]2(CO)CC[C@]3(C)[C@H](CC[C@@H]4[C@@]5(C)CC[C@H](O)C(C)(C)[C@@H]5CC[C@]43C)[C@@H]12` [BETULIN], the Activity in the assay on Phytophthora cactorum [2] came to 30.5 mm. On to `CC(C)[C@H](C)CC[C@@H](C)[C@H]1CC[C@H]2[C@@H]3CC=C4C[C@@H](O)CC[C@]4(C)[C@H]3CC[C@]12C` [CAMPESTEROL], for which the Activity with Phytophthora cactorum [4] was found to be 200 mg; in the assay with Phytophthora cactorum [5], 125 mg. Regarding `CC(=O)OC(C)(C)/C=C/C(=O)[C@](C)(O)[C@H]1[C@H](O)C[C@@]2(C)[C@@H]3CC=C4[C@@H](CC[C@@H](O)C4(C)C)[C@]3(CO)C(=O)C[C@]12C` [CUCURBITACIN C], the result in the assay on Phytophthora cactorum [1] was Active. Further, in the assay on Phytophthora cactorum [2], the Activity was 28 mm.

In the case of `CC(C)=CCC[C@@H](C)[C@H]1CC[C@@]2(C)[C@@H]3CC[C@H]4C(C)(C)[C@@H](O)CC[C@@]45C[C@@]35CC[C@]12C` [CYCLOARTENOL], in the assay on Phytophthora cactorum [2], the Activity worked out at 31 mm. For the compound `CC(C)=CCC[C@@H](C)[C@H]1CC[C@@]2(C)C3=C(CC[C@]12C)[C@@]1(C)CC[C@H](O)C(C)(C)[C@@H]1CC3` [LANOSTEROL], the Activity in the assay with Phytophthora cactorum [2] is on record as 30.5 mm.

As for `C=C(C)[C@@H]1CC[C@]2(C)CC[C@]3(C)[C@H](CC[C@@H]4[C@@]5(C)CC[C@H](O)C(C)(C)[C@@H]5CC[C@]43C)[C@@H]12` [LUPEOL], in the assay on Phytophthora cactorum [2], the Activity is 29.5 mm. As to `CC1(C)CC[C@]2(C(=O)O)CC[C@]3(C)C(=CC[C@@H]4[C@@]5(C)CC[C@H](O)C(C)(C)[C@@H]5CC[C@]43C)[C@@H]2C1` [OLEANOLIC_ACID], in the assay on Phytophthora cactorum [2], the Activity amounted to 29 mm. Take `CC1(C)CCC[C@]2(C)[C@H]3CC[C@@H]4[C@@]5(C)CC[C@H](O)C(C)(C)[C@@H]5CC[C@@]4(C)[C@]3(C)CC[C@@H]12` [TETRAHYMANOL]: in the assay with Phytophthora cactorum [4], the Activity turned out to be 135 mg. Moreover, the result in the assay with Phytophthora cactorum [3] was Active. In the case of `CC1(C)CC[C@]2(C)CC[C@]3(C)C(=CC[C@@H]4[C@@]5(C)CC[C@H](O)C(C)(C)[C@@H]5CC[C@]43C)[C@@H]2C1` [beta-AMYRIN], the Activity in the assay on Phytophthora cactorum [4] was found to be 135 mg; with Phytophthora cactorum [2], 35 mm. In addition, in the assay on Phytophthora cactorum [3], the result was Active.
